Data reported in patent publication US12583871B2, “PRMT5 inhibitors” (MERCK SHARP & DOHME LLC, priority 2019, dated 2026).
Where two headings read alike, the source gives them in different places.

Legend:
[1] = target: T1, PRMT5 (symmetric dimethylation of arginine (SDMA) of PRMT5 substrates) in MCF-7 cells (Homo sapiens, UniProt O14744); test: PRMT5 Cell Target Engagement (TE) Assay; assay type: cell-based; conditions: 3 days treatment, nuclear SDMA by high content imaging
T1 construct: endogenous in cells; host or cells: MCF-7 cells
T1 sequence (O14744 whole entry): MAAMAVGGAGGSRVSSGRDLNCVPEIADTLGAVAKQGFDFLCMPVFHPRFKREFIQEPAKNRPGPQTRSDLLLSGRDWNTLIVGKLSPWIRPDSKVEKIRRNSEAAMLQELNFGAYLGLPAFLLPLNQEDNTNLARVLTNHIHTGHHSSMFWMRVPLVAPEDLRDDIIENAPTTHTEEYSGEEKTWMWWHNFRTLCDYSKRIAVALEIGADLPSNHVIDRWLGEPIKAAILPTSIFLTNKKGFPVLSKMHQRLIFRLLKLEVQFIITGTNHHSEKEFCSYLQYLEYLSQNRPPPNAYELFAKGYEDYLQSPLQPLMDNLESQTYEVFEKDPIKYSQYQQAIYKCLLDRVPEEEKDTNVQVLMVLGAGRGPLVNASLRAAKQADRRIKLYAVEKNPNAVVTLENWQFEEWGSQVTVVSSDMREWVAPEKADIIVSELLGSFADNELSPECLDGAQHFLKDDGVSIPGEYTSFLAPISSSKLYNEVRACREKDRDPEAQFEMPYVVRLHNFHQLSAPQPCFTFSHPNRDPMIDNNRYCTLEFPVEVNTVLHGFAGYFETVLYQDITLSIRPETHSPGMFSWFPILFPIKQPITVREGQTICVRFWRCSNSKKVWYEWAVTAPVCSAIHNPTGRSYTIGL
T1 sequence (Q9BQA1 whole entry partner): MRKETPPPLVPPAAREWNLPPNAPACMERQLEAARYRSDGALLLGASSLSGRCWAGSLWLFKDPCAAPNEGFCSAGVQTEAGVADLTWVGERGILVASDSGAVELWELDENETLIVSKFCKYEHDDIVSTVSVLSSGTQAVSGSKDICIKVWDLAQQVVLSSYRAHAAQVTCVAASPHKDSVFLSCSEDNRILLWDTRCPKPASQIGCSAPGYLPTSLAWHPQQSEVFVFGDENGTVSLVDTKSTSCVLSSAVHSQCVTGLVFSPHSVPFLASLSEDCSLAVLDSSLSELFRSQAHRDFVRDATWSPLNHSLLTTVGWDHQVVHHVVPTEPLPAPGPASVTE
From the text: PRMT5 Cell Target Engagement (TE) Assay
The PRMT5 TE assay is a biomarker assay for identifying compounds that inhibit symmetric dimethylation of arginine (SDMA) of PRMT5 substrates. The following substrates have been reported for PRMT5: histone H2A and H4 R3, Histone H3 R2, Histone H3 R8, spliceosome Sm proteins, ribosomal protein RPS10, p53, FEN1, nucleoplasmin, nucleolin, EGFR and EBNA. The assay focuses on detecting symmetrically dimethylated nuclear proteins using high content imaging technology. Detection of the expression of symmetrically dimethylated nuclear proteins is through a mixture of primary rabbit monoclonal antibodies to SDMA (CST 13222), which in turn recognized by an Alexafluor 488 dye-conjugated anti-rabbit IgG secondary antibody. The IN Cell Analyzer 2200 or Opera-Phenix measures nuclear Alexafluor 488 fluorescent dye intensity that is directly related to the level of expression of symmetrically dimethylated nuclear proteins at the single cell level. Nuclear AF488 dye intensities are compared to the mean value for DMSO treated cells (MIN) to report percent of inhibition for each compound-treated well.
In this assay, the cell potency (EC50) of each compound was determined from a ten point (1:3 serial dilution; top compound concentration of 10000 nM) titration curve using the following outlined procedure. Each well of a BD falcon collagen coated black/clear bottom 384-well plate was seeded with 4000 MCF-7 cells in 30 μl media and allowed to attach for 5 h. Media is ATCC-formulated Eagle's Minimum Essential Medium, Catalog No. 30-2003. To make the complete growth medium, the following components were added to the base medium: 0.01 mg/mL human recombinant insulin; fetal bovine serum to a final concentration of 10%. Additional 30 μl of media containing 2× compounds were added to each well. Cells were treated for 3 days in 37° C. CO2 incubator. On day 3, cells were fixed with Cytofix, permeablized with 0.4% Triton-X-100/Cytofix, and washed with D-PBS without Ca/Mg. Cells were blocked with Licor Odessey blocking reagent for 1 h at room temperature, followed by incubation with anti-SDMA (1:1000) antibody at 4° C. overnight. 1° antibody was removed, followed by three washings with DPBS without Ca/Mg and 0.05% Tween20. Hoechst (5 μg/mL), Cell Mask deep stain (1:2000) and Alexa488-conjugated goat anti-rabbit IgG (2 μg/mL) was added for 1 h at room temperature. A final washing step (three washes) was performed before sealing plate for imaging on In Cell Analyzer 2200 or Opera-Phenix. Images from analyzer were uploaded to Columbus (at WP or BOS) for image analysis. IC50 values were determined by 4 parameters robust fit of percent fluorescence units vs. (Log10) compound concentrations.

[2] = target: T2, PRMT5-MEP50 enzyme complex (Homo sapiens, UniProt O14744); test: PRMT5-MEP50 Enzyme Methylation Assay; assay type: biochemical; conditions: recombinant FL-PRMT5-MEP50, biotinylated H4R3(Me1) peptide, 15 μM SAM
T2 construct: 1.25 nM of Full-length (FL)-PRMT5-MEP50 enzyme complex; made in house; host or cells: baculovirus-transfected Sf21 cells
T2 sequence (O14744 whole entry): as the sequence (O14744 whole entry) above
T2 sequence (Q9BQA1 whole entry partner): as the sequence (Q9BQA1 whole entry partner) above
Procedure: PRMT5-MEP50 Enzyme Methylation Assay
PRMT5-MEP50 biochemical assay is a direct measurement of the methylation activity of the enzyme complex on a short peptide substrate derived from the N-terminus of H4 histone. Methylation experiment was performed with recombinant PRMT5-MEP50 protein complex. The assessment of inhibitory effect of small molecules was measured by the effectiveness of the compounds to inhibit this reaction (EC50).
In this assay, the potency (EC50) of each compound was determined from a twenty-point (1:2 serial dilution; top compound concentration of 100000 nM) titration curve using the following outlined procedure. To each well of a white ProxiPlus 384 well-plate, 100 nL of compound (1% DMSO in final assay volume of 10 μL) was dispensed, followed by the addition of 8 μL of 1× assay buffer (50 mM Bicine pH 8.0, 1 mM DTT, 0.004% Tween20, 0.01% BSA) containing 1.25 nM of Full-length (FL)-PRMT5-MEP50 enzyme complex (recombinant proteins from baculovirus-transfected Sf21 cells: FL-PRMT5; MW=[…] and FL-MEP50; MW=38614) and 1 μL of 150 μM S-(5′-Adenosyl)-L-Methionine Chloride (SAM). Plates were sealed and placed in a 37° C. humidified chamber for a 60 minutes pre-incubation with compound. Subsequently, each reaction was initiated by the addition of 1 μL 1× assay buffer containing 750 nM biotinylated H4R3(Me1) peptide. The final reaction in each well of 10 μL consists of 1.0 nM PRMT5-MEP50, 75 nM biotinylated-peptide, and 15 μM SAM. Methylation reactions were allowed to proceed for 150 minutes in a sealed plate at 37° C. Reactions were immediately quenched by the addition of 1 μL of 5% formic acid. Plates were then frozen and shipped to SAMDI™ Tech Inc. to determine the percent conversion from H4R3(Me1) to H4R3(Me2). Dose-response curves were generated by plotting percent effect (% product conversion; Y-axis) vs. Log 10 compound concentrations (X-axis). EC50 values were determined by non-linear regression according to models for sigmoidal (4 parameters) dose-response curves.

[3] = only EC50 (4 parameters single site sigmoidal model) or first EC50 of 7 parameters biphasic model, read-out: Enzyme Methylation Assay (EC50)
[4] = second EC50 of 7 parameters biphasic model, read-out: Enzyme Methylation Assay (EC50, nM), second EC50

Structure (SMILES)	EC50 [1]	EC50 [2, 3]	EC50 [2, 4]
COCc1cc(C(F)(F)F)cn2cc(C(=O)N3CC[C@]4(Cc5ccccc5CN4)[C@H](O)C3)nc12 [Example 1, ((3R,3′R)-3′-hydroxy-1,4-dihydro-1′H,2H-spiro[isoquinoline-3,4′-piperidin]-1′-yl)[8-(methoxymethyl)-6-(trifluoromethyl)imidazo[1,2-a]pyridin-2-yl]methanone]	6.23 nM	0.525 nM	224 nM
O=C(c1cn2cc(C3CC3)cnc2n1)N1CC[C@]2(Cc3ccccc3CN2)[C@H](O)C1 [Example 5, (6-cyclopropylimidazo[1,2-a]pyrimidin-2-yl)[(3R,3′R)-3′-hydroxy-1,4-dihydro-1′H,2H-spiro[isoquinoline-3,4′-piperidin]-1′-yl]methanone]	4.42 nM	0.216 nM	72.4 nM
CO[C@H](C)c1cc(Br)cn2cc(C(=O)N3CC[C@]4(Cc5ccccc5CN4)[C@H](O)C3)nc12 (single isomer, unassigned) [Example 3]	1.57 nM	0.581 nM	

Now from value to compound:

EC50 [1]	EC50 [2, 3]	EC50 [2, 4]	Structure (SMILES)
14 nM	0.652 nM	280 nM	Cc1nc2nc(C(=O)N3CC[C@]4(Cc5ccccc5CN4)[C@H](O)C3)cn2cc1Br [Example 4, (6-bromo-7-methylimidazo[1,2-a]pyrimidin-2-yl)[(3R,3′R)-3′-hydroxy-1,4-dihydro-1′H,2H-spiro[isoquinoline-3,4′-piperidin]-1′-yl]methanone]
2.11 nM	0.369 nM	114 nM	CO[C@@H](C)c1cc(Br)cn2cc(C(=O)N3CC[C@]4(Cc5ccccc5CN4)[C@H](O)C3)nc12 (single isomer, unassigned) [Example 2]
